Data from patent US5824665A, “Reduction of hair growth” (priority 1997, dated 1998).

Experiments:
flank organ hair growth = test: Golden Syrian hamster assay (flank organ hair mass after topical treatment); format: in vivo; details: thirteen applications
From the text: Male intact Golden Syrian hamsters are considered acceptable models for human beard hair growth in that they display oval shaped flank organs, one on each side, each about 8 mm in major diameter, which grow thick black and coarse hair similar to human beard hair. These organs produce hair in response to androgens in the hamster. To evaluate the effectiveness of a composition including a hair growth reducing compound, the flank organs of each of a group of hamsters are depilated by applying a thioglycolate based chemical depilatory (Surgex); alternatively, hair were removed by shaving the flank organs prior to topical treatments. To one organ of each animal 10 μl of vehicle alone once a day is applied, while to the other organ of each animal an equal amount of vehicle containing a hair growth reducing compound is applied. After thirteen applications (one application per day for five days a week), the flank organs are shaved and the amount of recovered hair (hair mass) from each is weighed. Percent-reduction of hair growth is calculated by subtracting the hair mass (mg) value of the test compound treated side from the hair mass value of the vehicle treated side; the delta value obtained is then divided by the hair mass value of the vehicle treated side, and the resultant number is multiplied by 100.
The above-described assay will be referred to herein as the "Golden Syrian hamster" assay. Preferred compositions provide an inhibition in hair growth of at least about 20%, more preferably at least about 40%, and most preferably at least about 60% when tested in the Golden Syrian hamster assay.

hair follicle hexokinase = test: Hexokinase activity in hair follicle extracts; format: biochemical, hamster; details: concentration of 1 mM
Experimental: Measurement of the Hexokinase Activity was Performed as Follows
The enzyme hexokinase was extracted from the hamster hair follicles in a buffer containing Tris-HCL (0.25M, pH 8.1), 1.5 mM EDTA and 5.0 mM MgCl2. The extract was prepared in a manner similar to as described above for phosphofructokinase. The following reagents were mixed together and the change in absorbance at 340 nm was monitored to determine enzyme activity--0.5 ml of the Tris buffer, 0.1 ml ATP (5 mM), 0.1 ml phospho(enol)pyruvate and NADH (0.75 mM and 0.2 mM respectively), 0.1 ml of the follicle extract.

[1] = test system: hair follicle phosphofructokinase; test: Phosphofructokinase activity in hair follicle extracts; format: biochemical, hamster
Experimental: The activity of two target enzymes (phosphofructokinase and hexokinase) was determined in hair follicle extracts in the presence or absence of select enzyme inhibitors.
Measurement of Phosphofructokinase Activity in Hair Follicle Extracts
Hair follicles from hamster flank organs were excised and an enzyme extract was prepared in a buffered mixture containing 75 mM Tris-HCL, 3 mM MgCl2, and 15 mM (NH4)2 SO4, pH 7.5, using a sonication device. The follicle extracts were passed through a 10,000 molecular weight cut off filter by centrifugation at 12,000 x g. The unfiltered extract was transferred to another filter and a 100 ul aliquot of the magnesium buffer was added. The sample was centrifuged again under similar conditions. This procedure was repeated two additional times.
The washed extract was removed from the insert cup and assayed for phosphofructokinase activity according to the following procedure. The extract was mixed with a solution containing 2.0 ml of the magnesium buffer, 0.1 ml of fructose 6-phosphate (30 mM), 0.1 ml ATP (15 mM), 0.1 ml NADH (1.5 mM), 0.3 ml of mercatopethanol (0.1M), 0.3 ml an auxiliary enzyme mixture made up of aldose (10 units/ml), triosephosphate isomerase (8 units/ml), and α-glycerophosphate dehydrogenae (4 units/ml) in 25 mM Tris-HCI (pH 7.5). […] Change in absorbance at UV 340 nm was used to determine the enzyme activity.

[2] = 10% concentration in vehicle, topical 10 μl once a day, vehicle and pH per compound as in the Table
[3] = 10% concentration in vehicle, topical 10 μl once a day, vs vehicle treated side
[4] = 4.4% concentration, vehicle A pH 7.0, topical
[5] = 15.0% concentration, vehicle G pH 7.0, topical
[6] = 7.5% concentration, vehicle C pH 8.5, topical

Row | Molecule | Hair Mass (mg) ± SEM, Treated (flank organ hair growth; [2]) | % Inhibition (hair growth) (flank organ hair growth; [3]) [%] | also measured
1 | 6-Amino-6-deoxy glucose | 0.77 ± .15 mg | 59 ± 6 | inhibition of the hair follicle hexokinase activity (hair follicle hexokinase): 46%
2 | O=C(O)C1(O)CC1 [1-Hydroxy-1-cyclopropanecarboxylic acid] | 1.80 ± .20 mg | 22 ± 9 | 
3 | O=CC[C@@H](O)[C@H](O)[C@H](O)CO [2-Deoxyglucose] | 0.96 ± .16 mg | 38 ± 7 | 
4 | O=C(O)C(=O)CF [3-Fluoropyruvic acid] | 1.14 ± .09 mg | 40 ± 5 | 
5 | Nc1ncnc2c1ncn2[C@@H]1O[C@H](COC(=O)c2ccc(S(=O)(=O)F)cc2)[C@@H](O)[C@H]1O [5'-p-Flurosuflonylbenzoyl adenosine] |  |  | % Inhibition (hair growth) (flank organ hair growth; [4]): 60 ± 3%; Hair Mass (mg) ± SEM, Treated (flank organ hair growth; [4]): 0.74 ± .05 mg
6 | O=C[C@H](O)[C@@H](O)[C@H](O)[C@H](S)CO [5-Thio-D-glucose] | 1.32 ± .20 mg | 49 ± 6 | 
7 | CCCCCCCCCCCCCCCCC(C(=O)O)C(O)(CC(=O)O)C(=O)O (centres unmarked) [Argaric acid] | 0.97 ± .14 mg | 52 ± 4 | inhibition of the hair follicle phosphofructokinase activity ([1]; concentration of 0.15 mM): 76%
8 | O=C(O)C(=O)CBr [Bromopyruvic acid] | 1.10 ± .11 mg | 58 ± 6 | 
9 | O=C(O)[C@H](O)COP(=O)(O)O [D(-)3-Phosphoglyceric acid] | 2.27 ± .22 mg | 21 ± 7 | 
10 | O=C(O)c1cc(=O)c2ccccc2[nH]1 [Kynurenic acid] | 0.98 ± .09 mg | 64 ± 4 | 
11 | N[C@@H]1C(O)O[C@H](CO)[C@@H](O)[C@@H]1O (some centres unmarked) [Mannosamine] | 0.71 ± .13 mg | 68 ± 6 | inhibition of the hair follicle hexokinase activity (hair follicle hexokinase): 100%
12 | CC(=O)N[C@H]1[C@@H](O)[C@H](O)[C@@H](CO)O[C@H]1O [N-Acetyl-β-D-mannosamine] | 0.79 ± .15 mg | 65 ± 7 | inhibition of the hair follicle hexokinase activity (hair follicle hexokinase): 100%
13 | Cc1ccc(S(=O)(=O)N[C@@H](CCCCN)C(=O)CCl)cc1 [N-α-(p-Tosyl)-L-lysine chloromethyl ketone] | 0.48 ± .11 mg | 81 ± 4 | inhibition of the hair follicle hexokinase activity (hair follicle hexokinase): 100%
14 | O=C(O)C(=O)Cc1ccccc1 [Phenylpyruvic acid] | 0.92 ± .21 mg | 54 ± 10 | 
15 | O=C(CCc1ccc(O)cc1)c1c(O)cc(O)cc1O [Phloretin] |  |  | % Inhibition (hair growth) (flank organ hair growth; [5]): 35 ± 7%; Hair Mass (mg) ± SEM, Treated (flank organ hair growth; [5]): 1.34 ± .11 mg
16 | O=C(O)COP(=O)(O)O [Phosphogylcolic acid] | 0.57 ± .09 mg | 66 ± 5 | inhibition of the hair follicle phosphofructokinase activity ([1]; concentration of 0.9 mM): 45%
17 | O=C(O)c1ccc2ccccc2n1 [Quinaldic Acid] | 0.62 ± .08 mg | 69 ± 4 | 
18 | O=C(O)c1cc(O)c2cccc(O)c2n1 [Xanthurenic acid] |  |  | % Inhibition (hair growth) (flank organ hair growth; [6]): 59 ± 4%; Hair Mass (mg) ± SEM, Treated (flank organ hair growth; [6]): 1.26 ± .13 mg
19 | N#CC(=Cc1ccc(O)cc1)C(=O)O [α-Cyano-4-hydroxycinnamic acid] | 0.87 ± .34 mg | 49 ± 17 | 
